# Test results from US10865216B2, “Tricyclic Gyrase inhibitors” (MERCK SHARP & DOHME CORP., priority 2012, dated 2020).
# Test system: S. aureus ATCC 13709
# Assay: MIC, S. aureus ATCC 13709
# Type: cell-based
# Conditions: S. aureus; Alamar Blue read after overnight incubation at 35° C.
row,SMILES,MIC Sa
1,CNc1cc(F)cc2c1[nH]c1nc(Oc3cnc(SC)nc3)nc(N3CC4C(CN)C4C3)c12 (stereo not drawn) [Compound 4.197],≤0.5 µg/mL
2,CNc1cc(F)cc2c1[nH]c1nc(Oc3cnc4cccnc4c3)nc(N3CC4CC(N)CC4C3)c12 (stereo not drawn) [Compound 4.046],≤0.5 µg/mL
3,CNc1cc(F)cc2c1[nH]c1nc(Oc3cnc(N4CCN(C(C)=O)CC4)nc3)nc(N3CC[C@@H](N)C3)c12 [Compound 4.229],≤0.5 µg/mL
4,CNc1cc(F)cc2c1[nH]c1nc(Oc3cncc(F)c3)nc(N3CC4(CCC4N)C3)c12 (stereo not drawn) [Compound 4.061],≤0.5 µg/mL
5,CNc1cc(F)cc2c1[nH]c1nc(Oc3cnc(C4CCC4)nc3)nc(N3CC4C(N)C4C3)c12 (stereo not drawn) [Compound 4.286],≤0.5 µg/mL
6,CNc1cc(F)cc2c1[nH]c1nc(Oc3cncc(OC)c3)nc(N3CC4CC(N)C4C3)c12 (stereo not drawn) [Compound 4.167],≤0.5 µg/mL
7,CNc1cc(F)cc2c1[nH]c1nc(Oc3cncc(-c4nnnn4C)c3)nc(N3CC4C[C@@H](N)C4C3)c12 (stereo partly drawn) [Compound 4.171],≤0.5 µg/mL
8,CNc1cc(F)cc2c1[nH]c1nc(Oc3cncc(F)c3)nc(N3CC(N)C4(CC4)C3)c12 (stereo not drawn) [Compound 4.056],≤0.5 µg/mL
9,CNc1cc(F)cc2c1[nH]c1nc(Oc3cnc(C)nc3)nc(N3CC(C4(N)CC4)C3)c12 [Compound 4.080],≤0.5 µg/mL
10,CNc1cc(F)cc2c1[nH]c1nc(Oc3ccc(C#N)nc3)nc(N3CCC(N)C3)c12 (stereo not drawn) [Compound 4.331],≤0.5 µg/mL
11,CCc1ncc(Oc2nc(N3CC4C(N)C4C3)c3c(n2)[nH]c2c(NC)cc(F)cc23)cn1 (stereo not drawn) [Compound 4.258],≤0.5 µg/mL
12,CCOC(=O)c1ncc(Oc2nc(N3C[C@H](N)C4(CC4)C3)c3c(n2)[nH]c2c(NC)cc(F)cc23)cn1 [Compound 4.402],≤0.5 µg/mL
13,CNc1cc(F)cc2c1[nH]c1nc(Oc3cnc(N4CCCC4=O)nc3)nc(N3CC4C(N)C4C3)c12 (stereo not drawn) [Compound 4.345],≤0.5 µg/mL
14,CNc1cc(F)cc2c1[nH]c1nc(Oc3cnc(C)nc3)nc(N3CC4CCNC4C3)c12 (stereo not drawn) [Compound 4.094],≤0.5 µg/mL
15,CNc1cc(F)cc2c1[nH]c1nc(Oc3cncnc3)nc(N3CC4CCC(N)C4C3)c12 (stereo not drawn) [Compound 4.016],≤0.5 µg/mL
16,CNc1cc(F)cc2c1[nH]c1nc(Oc3cnc(N(C)C)nc3)nc(N3CC[C@@H](N)C3)c12 [Compound 4.207],≤0.5 µg/mL
17,COc1cccc2c1[nH]c1nc(Oc3cccc(C#N)c3)nc(N3CC4C(N)C4C3)c12 (stereo not drawn) [Compound 2.12],16 µg/mL
18,CNc1cccc2c1[nH]c1nc(Sc3cnc4ccc[n+]([O-])c4c3)nc(N3CC4C(N)C4C3)c12 (stereo not drawn) [Compound 1.66],≤0.13 µg/mL
19,CNc1cc(F)cc2c1[nH]c1nc(Oc3cnc(C(C)(C)C)nc3)nc(N3CC4C(N)C4C3)c12 (stereo not drawn) [Compound 4.314],≤0.5 µg/mL
20,CNc1cc(F)cc2c1[nH]c1nc(Oc3cnc(C(C)C)nc3)nc(N3CC4C(N)C4C3)c12 (stereo not drawn) [Compound 4.232],≤0.5 µg/mL
21,CNc1cc(F)cc2c1[nH]c1nc(Oc3cnc(C(C)C)nc3)nc(N3CC4CC(N)C4C3)c12 (stereo not drawn) [Compound 4.234],≤0.5 µg/mL
22,CNc1cc(F)cc2c1[nH]c1nc(Oc3cnc(N)nc3)nc(N3CC4CC4(CN)C3)c12 (stereo not drawn) [Compound 4.185],≤0.5 µg/mL
23,CNc1cccc2c1[nH]c1nc(Sc3cnc4cccnc4c3)nc(N3CCC4(CC4N)C3)c12 (stereo not drawn) [Compound 1.26],≤0.5 µg/mL
24,CNc1cc(F)cc2c1[nH]c1nc(Oc3cnc(C)nc3)nc(N3CCC(C)(N)CC3)c12 [Compound 4.135],≤0.5 µg/mL
25,CNc1cc(F)cc2c1[nH]c1nc(Oc3cnc(C)nc3)nc(N3CC4CC4(CN)C3)c12 (stereo not drawn) [Compound 4.098],≤0.5 µg/mL
26,CNc1cc(F)cc2c1[nH]c1nc(Oc3cnc(C)nc3)nc(NCCCN)c12 [Compound 4.108],4 µg/mL
27,CNc1cc(F)cc2c1[nH]c1nc(Oc3cnc(CC(=O)N4CC[C@H](N)C4)nc3)nc(N3C[C@H](N)C4(CC4)C3)c12 [Compound 4.372],4 µg/mL

# Test system: E. coli ATCC 25922
# Assay: MIC, E. coli ATCC 25922
# Type: cell-based
# Conditions: E. coli; Alamar Blue read after overnight incubation at 35° C.
row,SMILES,MIC Ec
1,CNc1cc(F)cc2c1[nH]c1nc(Oc3cnc(SC)nc3)nc(N3CC4C(CN)C4C3)c12 (stereo not drawn) [Compound 4.197],≤0.5 µg/mL
2,CNc1cc(F)cc2c1[nH]c1nc(Oc3cnc4cccnc4c3)nc(N3CC4CC(N)CC4C3)c12 (stereo not drawn) [Compound 4.046],1 µg/mL
3,CNc1cc(F)cc2c1[nH]c1nc(Oc3cnc(N4CCN(C(C)=O)CC4)nc3)nc(N3CC[C@@H](N)C3)c12 [Compound 4.229],2 µg/mL
4,CNc1cc(F)cc2c1[nH]c1nc(Oc3cncc(F)c3)nc(N3CC4(CCC4N)C3)c12 (stereo not drawn) [Compound 4.061],≤0.5 µg/mL
5,CNc1cc(F)cc2c1[nH]c1nc(Oc3cnc(C4CCC4)nc3)nc(N3CC4C(N)C4C3)c12 (stereo not drawn) [Compound 4.286],≤0.5 µg/mL
6,CNc1cc(F)cc2c1[nH]c1nc(Oc3cncc(OC)c3)nc(N3CC4CC(N)C4C3)c12 (stereo not drawn) [Compound 4.167],≤0.5 µg/mL
7,CNc1cc(F)cc2c1[nH]c1nc(Oc3cncc(-c4nnnn4C)c3)nc(N3CC4C[C@@H](N)C4C3)c12 (stereo partly drawn) [Compound 4.171],4 µg/mL
8,CNc1cc(F)cc2c1[nH]c1nc(Oc3cncc(F)c3)nc(N3CC(N)C4(CC4)C3)c12 (stereo not drawn) [Compound 4.056],≤0.5 µg/mL
9,CNc1cc(F)cc2c1[nH]c1nc(Oc3cnc(C)nc3)nc(N3CC(C4(N)CC4)C3)c12 [Compound 4.080],1 µg/mL
10,CNc1cc(F)cc2c1[nH]c1nc(Oc3ccc(C#N)nc3)nc(N3CCC(N)C3)c12 (stereo not drawn) [Compound 4.331],≤0.5 µg/mL
11,CCc1ncc(Oc2nc(N3CC4C(N)C4C3)c3c(n2)[nH]c2c(NC)cc(F)cc23)cn1 (stereo not drawn) [Compound 4.258],≤0.5 µg/mL
12,CCOC(=O)c1ncc(Oc2nc(N3C[C@H](N)C4(CC4)C3)c3c(n2)[nH]c2c(NC)cc(F)cc23)cn1 [Compound 4.402],≤0.5 µg/mL
13,CNc1cc(F)cc2c1[nH]c1nc(Oc3cnc(N4CCCC4=O)nc3)nc(N3CC4C(N)C4C3)c12 (stereo not drawn) [Compound 4.345],2 µg/mL
14,CNc1cc(F)cc2c1[nH]c1nc(Oc3cnc(C)nc3)nc(N3CC4CCNC4C3)c12 (stereo not drawn) [Compound 4.094],≤0.5 µg/mL
15,CNc1cc(F)cc2c1[nH]c1nc(Oc3cncnc3)nc(N3CC4CCC(N)C4C3)c12 (stereo not drawn) [Compound 4.016],1 µg/mL
16,CNc1cc(F)cc2c1[nH]c1nc(Oc3cnc(N(C)C)nc3)nc(N3CC[C@@H](N)C3)c12 [Compound 4.207],≤0.5 µg/mL
17,COc1cccc2c1[nH]c1nc(Oc3cccc(C#N)c3)nc(N3CC4C(N)C4C3)c12 (stereo not drawn) [Compound 2.12],>64 µg/mL
18,CNc1cccc2c1[nH]c1nc(Sc3cnc4ccc[n+]([O-])c4c3)nc(N3CC4C(N)C4C3)c12 (stereo not drawn) [Compound 1.66],≤0.5 µg/mL
19,CNc1cc(F)cc2c1[nH]c1nc(Oc3cnc(C(C)(C)C)nc3)nc(N3CC4C(N)C4C3)c12 (stereo not drawn) [Compound 4.314],≤0.5 µg/mL
20,CNc1cc(F)cc2c1[nH]c1nc(Oc3cnc(C(C)C)nc3)nc(N3CC4C(N)C4C3)c12 (stereo not drawn) [Compound 4.232],≤0.5 µg/mL
21,CNc1cc(F)cc2c1[nH]c1nc(Oc3cnc(C(C)C)nc3)nc(N3CC4CC(N)C4C3)c12 (stereo not drawn) [Compound 4.234],1 µg/mL
22,CNc1cc(F)cc2c1[nH]c1nc(Oc3cnc(N)nc3)nc(N3CC4CC4(CN)C3)c12 (stereo not drawn) [Compound 4.185],8 µg/mL
23,CNc1cccc2c1[nH]c1nc(Sc3cnc4cccnc4c3)nc(N3CCC4(CC4N)C3)c12 (stereo not drawn) [Compound 1.26],1 µg/mL
24,CNc1cc(F)cc2c1[nH]c1nc(Oc3cnc(C)nc3)nc(N3CCC(C)(N)CC3)c12 [Compound 4.135],1 µg/mL
25,CNc1cc(F)cc2c1[nH]c1nc(Oc3cnc(C)nc3)nc(N3CC4CC4(CN)C3)c12 (stereo not drawn) [Compound 4.098],1 µg/mL
26,CNc1cc(F)cc2c1[nH]c1nc(Oc3cnc(C)nc3)nc(NCCCN)c12 [Compound 4.108],>16 µg/mL
27,CNc1cc(F)cc2c1[nH]c1nc(Oc3cnc(CC(=O)N4CC[C@H](N)C4)nc3)nc(N3C[C@H](N)C4(CC4)C3)c12 [Compound 4.372],16 µg/mL
